Results as given in US20110076377A1, “ETHOID COMPOUNDS FOR USE AS FOOD ADDITIVES” (UNIVERSITY OF VIRGINIA PATENT FOUNDATION, priority 2007, published 2011).
Residues, ends and D or L forms follow the SMILES beside them.

Columns and labels:
[1] = Comparative stability of aspartame and aspartame ethoid in PBS solution (HPLC-MS); type: physicochemical; conditions: for half-life: 65° C., PBS pH 7.5; for Cyclized product (%) / SM (%): AUC at 214 nm; for degradation at the 12 hour time point: FIG. 1, PBS pH 7.5, 65° C.
Procedure: Solutions of Aspartame and Compound 1 were prepared by dissolving 10 mg of the subject dipeptide in 4 ml of PBS, pH=7.5. […] Aliquots (50 μl) were withdrawn at the following times: 0, 24 h, 36 h, 48 h and 60 h, and diluted with 125 μl of methanol/acetonitrile/0.1% TFA.
The samples were analyzed by HPLC-MS, using a Gilson HPLC with dual wavelengths UV detector (214 and 254 nm). The following conditions were employed: column: C18; 4.6×250 mm; 5 μmx 6A; solvent system: H2O-1% TFA/Acetonitrile-1% TFA, 1 ml/min, with a gradient of 10% organic phase to 100% organic phase in 10 minutes, followed by a 10 minute hold at 100% of organic phase. As shown in the reaction schemes above, decomposition proceeds mainly via a cyclization reaction to form the corresponding cyclized product and methanol.
The AUC (at 214 nm) values corresponding to the dipeptide and corresponding cyclized products (aspartame→diketopiperazine and aspartame ethoid→ketooxazine) are summarized in the following Table.
See, e.g., FIG. 1, which provides plots of the logarithm of percent of intact dipeptide remaining over time, in hours, for both aspartame and the methyleneoxy ethoid of aspartame. […] The rate of degradation of the methyleneoxy ethoid of aspartame is time, temperature, and pH dependent.

[2] = reported, background; cited from earlier work
[3] = test system: taste-test volunteers; assay: Blind taste test of sweetening potency of aqueous solutions; type: in vivo; conditions: aqueous solutions at 1 mg/ml and 5 mg/ml, six volunteers
Procedure: The sweetening potency of Compounds 1 and 2 was established by conducting blind taste tests of aqueous solutions of each of Compound 1 and 2 compared to aqueous solutions of each of sucrose and aspartame at concentrations of both 1 mg/ml and 5 mg/ml. […] Furthermore, Compound 1, the ethoid version of aspartame, was reported to be approximately 5 to 10 times sweeter than aspartame by the taste-test volunteers.

[4] = Solution stability of methyleneoxy ethoid of neotame relative to neotame; type: physicochemical; conditions: FIG. 5B, 60° C., PBS pH 7.5, hydrolysis of methyl ester
Procedure: FIGS. 5A and 5B illustrate the temperature stability of an exemplary ethoid of neotame compared to neotame itself. […] FIG. 5B provides a comparison of the rate of degradation of the methyleneoxy ethoid of neotame versus neotame over time at 60° C. in a solution of phosphate buffered saline at pH 7.5. Specifically, FIG. 5B is a plot of the natural logarithm of the concentration of (neotame/neotame ethoid) over time. The decomposition reaction proceeds via hydrolysis of the methyl ester to the corresponding di-carboxylic acid.
The solution stability of Compound 3 at various temperatures was examined and compared to that of neotame.
The major route leading to loss of neotame is hydrolysis of the methyl ester group as shown above. […] The rates of degradation of neotame and the methyleneoxy ethoid of neotame were examined and compared. […] FIG. 5B is a plot comparing the rate of degradation of neotame to that of the corresponding ethoid.

Compound | half-life [1] | Cyclized product (%) ([1]; PBS pH 7.5, 40° C., time 0 h) | SM (%) ([1]; PBS pH 7.5, 40° C., time 0 h) | Cyclized product (%) ([1]; PBS pH 7.5, 40° C., time 24 h) | SM (%) ([1]; PBS pH 7.5, 40° C., time 24 h) | Cyclized product (%) ([1]; PBS pH 7.5, 40° C., time 36 h) | SM (%) ([1]; PBS pH 7.5, 40° C., time 36 h) | Cyclized product (%) ([1]; PBS pH 7.5, 40° C., time 48 h) | SM (%) ([1]; PBS pH 7.5, 40° C., time 48 h) | Cyclized product (%) ([1]; PBS pH 7.5, 40° C., time 60 h) | SM (%) ([1]; PBS pH 7.5, 40° C., time 60 h) | degradation at the 12 hour time point [1] | sweetness relative to sugar [2] | sweetness compared to sucrose solution [3] | also measured
COC(=O)[C@H](Cc1ccccc1)NC(=O)[C@@H](N)CC(=O)O [Aspartame, L-aspartyl-L-phenylalanine methyl ester, reference compound] (H-Asp-Phe-OMe) | 0.104 days | 0% | 100% | 95% | 5% | 100% | 0% | 100% | 0% | 100% | 0% | essentially complete | approximately 150 times | – | sweetness relative to an equivalent amount of sugar [2]: 150 fold
COC(=O)C(Cc1ccccc1)OCC(N)CC(=O)O (centres unmarked) [Compound 1, asp-CH2—O-phe] | 12.7 days | 0% | 100% | 0% | 100% | 0% | 100% | 0% | 100% | 0% | 100% | negligible | – | significantly sweeter than sugar | sweetness relative to aspartame [3]: several-fold sweeter; phenylalanine formation upon degradation [1]: does not form phenylalanine; diketopiperazine formation upon degradation ([1]; Example 4): no diketopiperazine (dkkp) formation; degradation in solution at 40° C. ([1]; PBS pH 7.5, 40° C., up to 60 h): essentially no degradation was observed; improvement of stability over aspartame ([1]; half lives at 65° C., ethoid versus aspartame): over a hundred-fold
CC(=O)NC(COC(CCCCN)C(=O)O)Cc1ccccc1 (centres unmarked) [Compound 2, N—Ac-Phe-CH2—O-Lys] | – | – | – | – | – | – | – | – | – | – | – | – | – | significantly sweeter than sugar | –
COC(=O)C(Cc1ccccc1)OCC(CC(=O)O)NCCC(C)(C)C (centres unmarked) [Compound 3] | – | – | – | – | – | – | – | – | – | – | – | – | – | – | rate of degradation compared to neotame [4]: nearly identical
O=C1NS(=O)(=O)c2ccccc21 [saccharin] | – | – | – | – | – | – | – | – | – | – | – | – | 300-450 times | – | –
